Columns and labels:
Experiment in all cases: Yeast growth assay, specificity profiling
Assay type in all cases: cell-based
Parameters in all cases: key: “−” indicates no growth restoration i.e. no activity against the particular kinase; “+”, “++”, and “+++” indicate activity detected by restoration of growth, classified into three categories of potency; “+”, “++”, and “+++” indicate activity detected by restoration of growth, classified into three categories of potency; “+”, “++”, and “+++” indicate activity detected by restoration of growth, classified into three categories of potency
Settings in all cases: 7 concentrations between 0.2 and 100 μM
VEGFR2 = target: T1, VEGFR2 (Homo sapiens, UniProt P35968)
T1 construct: expressed in transfected cells; host or cells: yeast
T1 sequence (P35968 20-1356): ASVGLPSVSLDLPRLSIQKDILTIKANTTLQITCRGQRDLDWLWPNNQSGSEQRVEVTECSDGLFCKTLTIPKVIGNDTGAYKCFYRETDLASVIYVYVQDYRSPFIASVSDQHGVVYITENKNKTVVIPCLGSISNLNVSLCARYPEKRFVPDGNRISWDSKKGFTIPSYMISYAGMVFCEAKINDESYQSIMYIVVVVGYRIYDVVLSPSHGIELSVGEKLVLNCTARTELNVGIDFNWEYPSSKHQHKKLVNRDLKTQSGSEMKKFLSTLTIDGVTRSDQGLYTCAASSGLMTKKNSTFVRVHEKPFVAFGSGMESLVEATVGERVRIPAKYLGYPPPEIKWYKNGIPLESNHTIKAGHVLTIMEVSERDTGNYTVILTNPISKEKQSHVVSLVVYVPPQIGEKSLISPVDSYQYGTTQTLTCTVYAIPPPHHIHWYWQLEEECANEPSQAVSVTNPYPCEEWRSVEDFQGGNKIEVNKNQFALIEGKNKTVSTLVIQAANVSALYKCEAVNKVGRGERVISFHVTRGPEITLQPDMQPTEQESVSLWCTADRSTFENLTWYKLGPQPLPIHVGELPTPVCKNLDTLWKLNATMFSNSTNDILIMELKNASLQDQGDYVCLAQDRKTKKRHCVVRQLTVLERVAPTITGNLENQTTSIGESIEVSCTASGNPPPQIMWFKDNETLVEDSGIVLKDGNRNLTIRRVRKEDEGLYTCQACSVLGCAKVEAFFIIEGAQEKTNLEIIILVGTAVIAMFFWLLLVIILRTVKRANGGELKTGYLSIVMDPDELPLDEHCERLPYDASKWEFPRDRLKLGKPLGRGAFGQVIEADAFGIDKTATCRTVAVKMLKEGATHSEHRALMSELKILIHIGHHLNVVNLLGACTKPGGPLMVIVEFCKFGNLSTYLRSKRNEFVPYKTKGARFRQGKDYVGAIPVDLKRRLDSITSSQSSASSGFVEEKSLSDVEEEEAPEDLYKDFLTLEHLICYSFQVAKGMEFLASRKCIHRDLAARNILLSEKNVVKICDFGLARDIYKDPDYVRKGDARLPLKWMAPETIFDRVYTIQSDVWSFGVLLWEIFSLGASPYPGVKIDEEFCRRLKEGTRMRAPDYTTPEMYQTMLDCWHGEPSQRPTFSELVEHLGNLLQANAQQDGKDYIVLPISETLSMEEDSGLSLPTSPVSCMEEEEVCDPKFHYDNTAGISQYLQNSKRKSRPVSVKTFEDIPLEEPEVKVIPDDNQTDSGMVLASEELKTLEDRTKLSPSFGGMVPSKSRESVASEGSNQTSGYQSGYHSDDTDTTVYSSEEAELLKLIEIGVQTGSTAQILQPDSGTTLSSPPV
Method: (§1) Specificity Profiling: Yeast Growth Assay
(§2) The yeast growth assay was performed as described in “Method for the identification and/or validation of receptor tyrosine kinase inhibitors” PCT/CH03/00694 (2004/10/24), section “Modes for Carrying out the Invention, Experiment 1 and Experiment 2.
(§3) Briefly, yeast cells carrying plasmids with the RTK of interest were grown in glucose containing medium (repressing expression). The cultures were diluted into galactose containing medium, which induces the expression of the kinase. Expression of the kinase inhibits growth of the yeast cells, which allows for positive selection of kinase inhibitors restoring growth of cells. Compounds were titrated at 7 concentrations between 0.2 and 100 μM.
(§4) Specificity profiling of compounds, using the yeast growth assay method described above. “−” indicates no growth restoration i.e. no activity against the particular kinase, “+”, “++”, and “+++” indicate activity detected by restoration of growth, classified into three categories of potency according to the maximal level of growth restoration reached and the concentration at which the maximal growth restoration is reached.

IGF-1R = target: T2, IGF-1R (Homo sapiens, UniProt P08069)
T2 construct: expressed in transfected cells; host or cells: yeast
T2 sequence (P08069 31-1367): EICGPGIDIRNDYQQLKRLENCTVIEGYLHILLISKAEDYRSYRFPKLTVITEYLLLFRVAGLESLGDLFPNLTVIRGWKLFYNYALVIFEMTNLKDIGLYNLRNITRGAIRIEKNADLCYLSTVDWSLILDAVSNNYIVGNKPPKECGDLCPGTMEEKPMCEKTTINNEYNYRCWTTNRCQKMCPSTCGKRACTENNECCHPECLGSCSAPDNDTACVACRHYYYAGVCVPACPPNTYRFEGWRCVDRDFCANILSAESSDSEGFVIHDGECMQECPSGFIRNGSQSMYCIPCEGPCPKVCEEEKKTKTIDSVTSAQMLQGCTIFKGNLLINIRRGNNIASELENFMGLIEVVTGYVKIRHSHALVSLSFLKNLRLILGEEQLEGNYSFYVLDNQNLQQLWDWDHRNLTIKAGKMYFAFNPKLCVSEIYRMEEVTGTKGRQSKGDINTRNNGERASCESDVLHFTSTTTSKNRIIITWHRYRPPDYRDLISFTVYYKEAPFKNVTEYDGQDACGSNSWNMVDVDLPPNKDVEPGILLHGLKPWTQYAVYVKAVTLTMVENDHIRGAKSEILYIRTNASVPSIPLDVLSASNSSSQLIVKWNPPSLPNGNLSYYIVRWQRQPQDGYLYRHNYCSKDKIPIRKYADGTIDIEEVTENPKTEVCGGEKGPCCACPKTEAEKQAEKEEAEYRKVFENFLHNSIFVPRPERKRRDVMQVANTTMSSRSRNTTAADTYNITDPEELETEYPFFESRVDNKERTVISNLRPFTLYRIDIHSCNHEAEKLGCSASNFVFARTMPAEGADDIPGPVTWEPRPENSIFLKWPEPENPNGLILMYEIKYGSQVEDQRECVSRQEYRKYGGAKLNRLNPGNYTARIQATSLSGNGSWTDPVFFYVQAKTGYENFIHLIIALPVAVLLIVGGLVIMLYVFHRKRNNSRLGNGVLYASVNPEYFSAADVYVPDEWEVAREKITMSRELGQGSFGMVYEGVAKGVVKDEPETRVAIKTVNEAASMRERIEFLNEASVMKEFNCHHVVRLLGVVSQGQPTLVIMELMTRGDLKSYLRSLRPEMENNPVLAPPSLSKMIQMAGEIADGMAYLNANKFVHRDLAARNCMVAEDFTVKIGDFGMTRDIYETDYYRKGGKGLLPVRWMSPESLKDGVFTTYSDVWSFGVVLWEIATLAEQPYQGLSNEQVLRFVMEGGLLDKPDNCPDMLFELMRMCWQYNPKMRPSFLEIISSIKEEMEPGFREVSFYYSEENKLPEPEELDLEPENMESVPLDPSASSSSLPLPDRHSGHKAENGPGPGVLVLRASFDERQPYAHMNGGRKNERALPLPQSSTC
Method: as §1, §2, §3, §4

FGFR-3 = target: T3, FGFR-3 (Homo sapiens, UniProt P22607)
T3 construct: expressed in transfected cells; host or cells: yeast
Method: as §1, §2, §3, §4

EphB4 = target: T4, EphB4 (Homo sapiens, UniProt P54760)
T4 construct: expressed in transfected cells; host or cells: yeast
T4 sequence (P54760 16-987): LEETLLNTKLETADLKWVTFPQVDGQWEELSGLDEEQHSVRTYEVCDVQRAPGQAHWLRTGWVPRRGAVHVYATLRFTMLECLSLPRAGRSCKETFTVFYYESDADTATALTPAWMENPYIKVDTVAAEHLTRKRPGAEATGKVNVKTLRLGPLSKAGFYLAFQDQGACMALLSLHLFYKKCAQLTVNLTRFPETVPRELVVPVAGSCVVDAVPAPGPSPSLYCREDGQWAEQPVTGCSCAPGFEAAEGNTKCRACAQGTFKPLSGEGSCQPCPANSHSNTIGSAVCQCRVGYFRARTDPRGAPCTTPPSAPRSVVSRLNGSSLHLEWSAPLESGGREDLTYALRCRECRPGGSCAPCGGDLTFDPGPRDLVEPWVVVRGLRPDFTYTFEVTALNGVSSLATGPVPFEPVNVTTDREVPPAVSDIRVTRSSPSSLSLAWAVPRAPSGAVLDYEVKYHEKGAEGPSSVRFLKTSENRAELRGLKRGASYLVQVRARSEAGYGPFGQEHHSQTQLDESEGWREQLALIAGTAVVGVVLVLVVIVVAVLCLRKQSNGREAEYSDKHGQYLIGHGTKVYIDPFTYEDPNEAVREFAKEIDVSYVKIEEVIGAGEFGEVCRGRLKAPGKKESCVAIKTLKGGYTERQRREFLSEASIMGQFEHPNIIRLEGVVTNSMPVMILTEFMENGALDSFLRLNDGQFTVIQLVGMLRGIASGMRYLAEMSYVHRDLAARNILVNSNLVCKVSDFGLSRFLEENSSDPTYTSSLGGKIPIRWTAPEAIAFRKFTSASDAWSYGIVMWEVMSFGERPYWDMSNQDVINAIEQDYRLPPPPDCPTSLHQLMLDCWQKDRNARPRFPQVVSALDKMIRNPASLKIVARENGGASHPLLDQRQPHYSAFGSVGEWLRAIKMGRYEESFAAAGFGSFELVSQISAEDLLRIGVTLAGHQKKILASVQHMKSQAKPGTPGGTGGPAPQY
Method: as §1, §2, §3, §4

InsR = target: T5, InsR (Homo sapiens, UniProt P06213)
T5 construct: expressed in transfected cells; host or cells: yeast
Method: as §1, §2, §3, §4

VEGFR1 = target: T6, VEGFR1 (Homo sapiens, UniProt P17948)
T6 construct: expressed in transfected cells; host or cells: yeast
T6 sequence (P17948 27-1338): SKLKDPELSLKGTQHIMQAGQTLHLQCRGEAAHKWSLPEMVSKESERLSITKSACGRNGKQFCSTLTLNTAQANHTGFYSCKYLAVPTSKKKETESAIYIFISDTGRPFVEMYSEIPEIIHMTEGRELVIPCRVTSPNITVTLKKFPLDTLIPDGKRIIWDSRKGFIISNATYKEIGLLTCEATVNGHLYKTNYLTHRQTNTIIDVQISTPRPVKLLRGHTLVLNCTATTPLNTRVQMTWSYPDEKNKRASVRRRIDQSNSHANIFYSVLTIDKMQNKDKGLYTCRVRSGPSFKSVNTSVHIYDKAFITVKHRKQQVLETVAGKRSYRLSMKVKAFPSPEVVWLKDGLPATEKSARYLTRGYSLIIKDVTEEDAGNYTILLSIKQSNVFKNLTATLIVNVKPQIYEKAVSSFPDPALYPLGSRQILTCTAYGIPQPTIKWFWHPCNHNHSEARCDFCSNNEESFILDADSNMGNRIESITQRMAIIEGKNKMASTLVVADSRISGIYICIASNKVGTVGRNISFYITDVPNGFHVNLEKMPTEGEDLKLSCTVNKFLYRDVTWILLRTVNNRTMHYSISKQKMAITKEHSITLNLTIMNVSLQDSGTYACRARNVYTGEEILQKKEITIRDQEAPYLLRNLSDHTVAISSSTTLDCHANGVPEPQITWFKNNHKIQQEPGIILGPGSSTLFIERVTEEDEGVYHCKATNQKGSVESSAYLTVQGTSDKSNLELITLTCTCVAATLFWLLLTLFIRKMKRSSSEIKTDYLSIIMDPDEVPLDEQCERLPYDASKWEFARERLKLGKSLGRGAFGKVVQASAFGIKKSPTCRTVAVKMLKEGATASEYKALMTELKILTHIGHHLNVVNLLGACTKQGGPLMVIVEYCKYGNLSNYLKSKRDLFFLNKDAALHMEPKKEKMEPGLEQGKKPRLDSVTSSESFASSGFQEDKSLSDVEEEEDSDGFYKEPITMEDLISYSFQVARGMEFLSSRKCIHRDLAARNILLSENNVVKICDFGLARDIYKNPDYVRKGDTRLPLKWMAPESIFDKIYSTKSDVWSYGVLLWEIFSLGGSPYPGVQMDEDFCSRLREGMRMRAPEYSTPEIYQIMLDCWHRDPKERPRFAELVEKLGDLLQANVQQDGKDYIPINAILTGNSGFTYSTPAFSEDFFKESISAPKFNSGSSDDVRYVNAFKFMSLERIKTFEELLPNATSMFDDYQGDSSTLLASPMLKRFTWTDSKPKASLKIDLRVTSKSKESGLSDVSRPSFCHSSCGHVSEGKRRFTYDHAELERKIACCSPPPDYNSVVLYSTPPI
Method: as §1, §2, §3, §4

RET = target: T7, RET (Homo sapiens, UniProt P07949)
T7 construct: expressed in transfected cells; host or cells: yeast
T7 sequence (P07949 29-1114): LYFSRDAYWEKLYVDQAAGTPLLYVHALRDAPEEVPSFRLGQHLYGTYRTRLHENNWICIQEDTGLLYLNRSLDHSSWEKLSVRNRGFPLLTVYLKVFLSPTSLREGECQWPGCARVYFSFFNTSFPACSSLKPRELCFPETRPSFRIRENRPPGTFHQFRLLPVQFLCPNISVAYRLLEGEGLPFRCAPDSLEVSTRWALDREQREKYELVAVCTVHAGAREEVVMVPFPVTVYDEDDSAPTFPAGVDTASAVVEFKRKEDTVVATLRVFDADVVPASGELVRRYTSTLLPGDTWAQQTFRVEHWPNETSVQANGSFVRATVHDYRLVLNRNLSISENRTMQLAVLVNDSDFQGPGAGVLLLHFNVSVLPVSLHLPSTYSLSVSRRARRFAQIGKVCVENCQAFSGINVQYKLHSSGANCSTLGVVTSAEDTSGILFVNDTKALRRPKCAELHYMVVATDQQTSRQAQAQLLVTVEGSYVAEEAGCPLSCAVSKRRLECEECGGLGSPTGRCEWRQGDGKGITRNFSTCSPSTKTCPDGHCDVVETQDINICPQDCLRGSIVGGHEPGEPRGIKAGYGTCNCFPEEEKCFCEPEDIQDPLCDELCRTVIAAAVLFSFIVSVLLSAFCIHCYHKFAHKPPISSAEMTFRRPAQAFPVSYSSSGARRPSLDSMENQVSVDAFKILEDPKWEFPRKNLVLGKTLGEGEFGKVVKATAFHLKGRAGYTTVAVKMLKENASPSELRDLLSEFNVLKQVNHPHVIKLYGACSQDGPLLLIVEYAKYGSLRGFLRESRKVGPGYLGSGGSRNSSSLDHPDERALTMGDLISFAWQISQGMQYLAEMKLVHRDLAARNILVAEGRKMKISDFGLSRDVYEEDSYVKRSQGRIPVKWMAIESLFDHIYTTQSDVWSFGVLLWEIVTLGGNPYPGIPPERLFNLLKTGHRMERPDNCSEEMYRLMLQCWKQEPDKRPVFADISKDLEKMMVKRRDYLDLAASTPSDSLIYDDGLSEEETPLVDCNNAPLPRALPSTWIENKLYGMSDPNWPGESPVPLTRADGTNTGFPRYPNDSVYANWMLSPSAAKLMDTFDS
Method: as §1, §2, §3, §4

VEGFR2 growth restoration (VEGFR2) | IGF-1R growth restoration (IGF-1R) | FGFR-3 growth restoration (FGFR-3) | EphB4 growth restoration (EphB4) | InsR growth restoration (InsR) | VEGFR1 growth restoration (VEGFR1) | RET growth restoration (RET) | SMILES
− | − | − | +++ | − | − | − | Cc1nccn2c(Nc3ccc(F)c(F)c3)c(-c3ccccc3)nc12 [compound 45, (3,4-Difluoro-phenyl)-(8-methyl-2-phenyl-imidazo[1,2-a]pyrazin-3-yl)-amine]
− | − | − | ++ | − | − | + | c1ccc(Nc2c(-c3ccccc3)nc3cnccn23)cc1 [compound 23, Phenyl-(2-phenyl-imidazo[1,2-a]pyrazin-3-yl)-amine]
− | − | − | +++ | − | − | − | Cc1cccc(Nc2c(-c3ccccc3)nc3c(C)nccn23)c1 [compound 43, (8-Methyl-2-phenyl-imidazo[1,2-a]pyrazin-3-yl)-m-tolyl-amine]
− | − | − | +++ | − | − | − | Cc1nccn2c(Nc3cccc(F)c3)c(-c3ccccc3)nc12 [compound 44, (3-Fluoro-phenyl)-(8-methyl-2-phenyl-imidazo[1,2-a]pyrazin-3-yl)-amine]
− | − | − | + | − | − | + | Clc1ccc(Nc2c(-c3ccccc3)nc3cnccn23)cc1 [compound 16, (4-Chloro-phenyl)-(2-phenyl-imidazo[1,2-a]pyrazin-3-yl)-amine]
− | − | − | ++ | − | − | − | Cc1nccn2c(Nc3cccc(Cl)c3)c(-c3ccccc3)nc12 [compound 3, (3-Chloro-phenyl)-(8-methyl-2-phenyl-imidazo[1,2-a]pyrazin-3-yl)-amine]
− | − | − | + − | − | − | − | Cc1cccc(Nc2c(-c3ccccc3)nc3cnccn23)c1 [compound 34, (2-Phenyl-imidazo[1,2-a]pyrazin-3-yl)-m-tolyl-amine]
− | − | − | + | − | − | + − | COc1cccc(-c2nc3cnccn3c2Nc2cccc(Cl)c2)c1 [compound 7, (3-Chloro-phenyl)-[2-(3-methoxy-phenyl)-imidazo[1,2-a]pyrazin-3-yl]-amine]

From patent US20070149535A1, “Protein kinase inhibitors” (ONCALIS AG, priority 2004, published 2007)
